Assay results taken from ChEMBL document CHEMBL5614394, “Novel pleuromutilin derivatives conjugated with phenyl-sulfide and boron-containing moieties as potent antibacterial agents against antibiotic-resistant bacteria” (Eur J Med Chem, 2024).
In brackets after ≈: the same amount, converted by molar mass.

Legend:
Type in all cases: functional
[1] = tested on: Staphylococcus epidermidis; test: Antibacterial activity against Staphylococcus epidermidis ATCC 12228 assessed as inhibition of visible growth of bacteria incubated for 24 hrs by CLSI protocol based broth-dilution method
Staphylococcus aureus [2] = test: Antibacterial activity against Staphylococcus aureus ATCC 29213 assessed as inhibition of visible growth of bacteria incubated for 24 hrs by CLSI protocol based broth-dilution method
Staphylococcus aureus [3] = test: Antibacterial activity against methicillin-resistant Staphylococcus aureus J1 harboring (lsa(E)+) genotype assessed as inhibition of visible growth of bacteria incubated for 24 hrs by CLSI protocol based broth-dilution method
Enterococcus faecium [4] = test: Antibacterial activity against pleuromutilin-resistant Enterococcus faecium 18FJZ1-1 harboring (lsa(E)+) genotype assessed as inhibition of visible growth of bacteria incubated for 24 hrs by CLSI protocol based broth-dilution method
Staphylococcus simulans = test: Antibacterial activity against pleuromutilin-resistant Staphylococcus simulans isolate 55-1 harboring cfr+ genotype assessed as inhibition of visible growth of bacteria incubated for 24 hrs by CLSI protocol based broth-dilution method
Enterococcus faecium [5] = test: Antibacterial activity against pleuromutilin-resistant Enterococcus faecium 18SC29-2 harboring (lsa(E)-) genotype assessed as inhibition of visible growth of bacteria incubated for 24 hrs by CLSI protocol based broth-dilution method

| SMILES | MIC [1] | MIC (Staphylococcus aureus [2]) | MIC (Staphylococcus aureus [3]) | MIC (Enterococcus faecium [4]) | MIC (Staphylococcus simulans) | MIC (Enterococcus faecium [5]) |
| --- | --- | --- | --- | --- | --- | --- |
| C=C[C@]1(C)C[C@@H](OC(=O)CSc2cccc(NCc3cccc(B(O)O)c3)c2)[C@]2(C)[C@H](C)CC[C@]3(CCC(=O)[C@H]32)[C@@H](C)[C@@H]1O | 0.125 µg/mL (≈ 0.202 µM) | 0.063 µg/mL (≈ 0.102 µM) | – | – | – | – |
| C=C[C@]1(C)C[C@@H](OC(=O)CSc2cccc(NC(=O)c3ccc(B(O)O)o3)c2)[C@]2(C)[C@H](C)CC[C@]3(CCC(=O)[C@H]32)[C@@H](C)[C@@H]1O | 0.063 µg/mL (≈ 0.101 µM) | 0.5 µg/mL (≈ 0.802 µM) | – | – | – | – |
| C=C[C@]1(C)C[C@@H](OC(=O)CSC(C)(C)CNC(=O)c2ccc3c(c2)B(O)OC3)[C@]2(C)[C@H](C)CC[C@]3(CCC(=O)[C@H]32)[C@@H](C)[C@@H]1O | 0.063 µg/mL (≈ 0.101 µM) | 0.063 µg/mL (≈ 0.101 µM) | 16 µg/mL (≈ 25.6 µM) | 8 µg/mL (≈ 12.8 µM) | 2 µg/mL (≈ 3.2 µM) | 0.125 µg/mL (≈ 0.2 µM) |
| C=C[C@]1(C)C[C@@H](OC(=O)CSC(C)(C)CNC(=O)[C@H](N)C(C)C)[C@]2(C)[C@H](C)CC[C@]3(CCC(=O)[C@H]32)[C@@H](C)[C@@H]1O [VALNEMULIN] | – | – | > 32 µg/mL | 8 µg/mL (≈ 14.2 µM) | 8 µg/mL (≈ 14.2 µM) | ≤ 0.06 µg/mL |
| C=C[C@]1(C)C[C@@H](OC(=O)CSc2cccc(NC(=O)c3ccc(OC)c(B(O)O)c3)c2)[C@]2(C)[C@H](C)CC[C@]3(CCC(=O)[C@H]32)[C@@H](C)[C@@H]1O | 0.031 µg/mL (≈ 0.0467 µM) | 0.031 µg/mL (≈ 0.0467 µM) | – | – | – | – |

Now from value to compound, other results behind:

| MIC [1] | MIC (Staphylococcus aureus [2]) | SMILES | MIC (Staphylococcus aureus [3]) | MIC (Enterococcus faecium [4]) | MIC (Staphylococcus simulans) | MIC (Enterococcus faecium [5]) |
| --- | --- | --- | --- | --- | --- | --- |
| 16 µg/mL (≈ 24.6 µM) | 0.063 µg/mL (≈ 0.0967 µM) | C=C[C@]1(C)C[C@@H](OC(=O)CSc2cccc(NC(=O)c3ccc(B(O)O)c(F)c3)c2)[C@]2(C)[C@H](C)CC[C@]3(CCC(=O)[C@H]32)[C@@H](C)[C@@H]1O | – | – | – | – |
| 4 µg/mL (≈ 6.14 µM) | 0.063 µg/mL (≈ 0.0967 µM) | C=C[C@]1(C)C[C@@H](OC(=O)CSc2ccc(NC(=O)c3ccc(B(O)O)cc3F)cc2)[C@]2(C)[C@H](C)CC[C@]3(CCC(=O)[C@H]32)[C@@H](C)[C@@H]1O | – | – | – | – |
| 1 µg/mL (≈ 1.5 µM) | 0.063 µg/mL (≈ 0.0943 µM) | C=C[C@]1(C)C[C@@H](OC(=O)CSc2cccc(NC(=O)c3ccc(B(O)O)cc3Cl)c2)[C@]2(C)[C@H](C)CC[C@]3(CCC(=O)[C@H]32)[C@@H](C)[C@@H]1O | – | – | – | – |
